Laboratory results as given in patent publication US20230025003A1, “DIABETES THERAPY TARGETING ABNORMAL STEM CELLS” (Biozipcode, Inc., priority 2019, published 2023).

Test system: diabetic patients (type 1 and type 2 diabetes mellitus)
Test: Research Plan 2: therapy of diabetes mellitus targeting a bone marrow-derived abnormal hematopoietic stem cell
Type: in vivo, human
Details: type 1 and type 2 diabetic patients; 12 weeks therapy; predicted result

Substance: insulin alone: insulin therapy alone (control group of Research Plan 2)
- Effect of eliminating an abnormal hematopoietic stem cell: not eliminated
- Effect of healing diabetes mellitus: not observed
- Therapeutic effect on a complication: observed to some extent, but the complication does not heal
